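Results reflect a 48-hour exposure of cells in 96-well plates to compound at five concentrations. At the GI50, growth is halved.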 The source made the active and inactive calls. No stated cut-off is given here; in the data, active = GI50 up to about 1.1 µM and inactive = higher.
How the values were obtained:
Experiment in all cases: inhibition of tumour cell growth, NCI panel, 48 h
HOP-62 = tested on: HOP-62
CCRF-CEM = tested on: CCRF-CEM
SNB-75 = tested on: SNB-75
HOP-92 = tested on: HOP-92
NCI-H522 = tested on: NCI-H522
NCI-H23 = tested on: NCI-H23
HL-60 = tested on: HL-60
HCT-116 = tested on: HCT-116
SK-MEL-5 = tested on: SK-MEL-5
SNB-19 = tested on: SNB-19
A498 = tested on: A498
SW-620 = tested on: SW-620
ACHN = tested on: ACHN
Malme-3M = tested on: Malme-3M
SK-MEL-2 = tested on: SK-MEL-2
LOX IMVI = tested on: LOX IMVI
IGROV-1 = tested on: IGROV-1
NCI-H460 = tested on: NCI-H460
SK-MEL-28 = tested on: SK-MEL-28
786-0 = tested on: 786-0

Structure (SMILES)	GI50 (HOP-62)	GI50 (CCRF-CEM)	GI50 (SNB-75)	GI50 (HOP-92)	GI50 (NCI-H522)	GI50 (NCI-H23)	GI50 (HL-60)	GI50 (HCT-116)	GI50 (SK-MEL-5)	GI50 (SNB-19)	GI50 (A498)	GI50 (SW-620)	GI50 (ACHN)	GI50 (Malme-3M)	GI50 (SK-MEL-2)	GI50 (LOX IMVI)	GI50 (IGROV-1)	GI50 (NCI-H460)	GI50 (SK-MEL-28)	GI50 (786-0)
O=c1[nH]cnc2[nH]nnc12	1.99 µM (inactive)	0.4 µM (active)	4.11 µM (inactive)	2.19 µM (inactive)	9.51 µM (inactive)	35.6 µM (inactive)	0.323 µM (active)	2.1 µM (inactive)	41.5 µM (inactive)	88.5 µM (inactive)	57 µM (inactive)	1.49 µM (inactive)	12 µM (inactive)	1.41 µM (inactive)	0.386 µM (active)	0.668 µM (active)	16 µM (inactive)	8.65 µM (inactive)	4.46 µM (inactive)	3.27 µM (inactive)
COc1ccc(/C(=N/O)C(c2ccc(OC)cc2)C2C(=O)Oc3ccccc32)cc1 (configuration not stated)		> 100 µM (inactive)	82.8 µM (inactive)	16.3 µM (inactive)	35.6 µM (inactive)	40.3 µM (inactive)	52.5 µM (inactive)	58.6 µM (inactive)	24.8 µM (inactive)		> 100 µM (inactive)	> 100 µM (inactive)	70.6 µM (inactive)	63.1 µM (inactive)	38.5 µM (inactive)	79.6 µM (inactive)	40 µM (inactive)	71.3 µM (inactive)	78.2 µM (inactive)	> 100 µM (inactive)
Cc1cccc(C)c1NC(=O)/C(Cc1nc2ccc([N+](=O)[O-])cc2nc1O)=N\NC(N)=O		19.6 µM (inactive)	> 100 µM (inactive)	57.8 µM (inactive)	31.6 µM (inactive)	> 100 µM (inactive)	32.5 µM (inactive)	83.2 µM (inactive)	> 100 µM (inactive)	> 100 µM (inactive)	82.4 µM (inactive)	52.5 µM (inactive)	94 µM (inactive)	> 100 µM (inactive)	> 100 µM (inactive)	22.1 µM (inactive)	89.3 µM (inactive)	> 100 µM (inactive)	> 100 µM (inactive)	> 100 µM (inactive)
C=C1C(=O)O[C@H]2C1[C@H](OC(=O)/C(C)=C\COC(C)=O)C[C@]1(CO1)[C@@H]1[C@H](O)[C@H]3O[C@@]3(C)[C@@H]12 (some centres not stated)	> 100 µM (inactive)	10.5 µM (inactive)	37 µM (inactive)	15.2 µM (inactive)	8.87 µM (inactive)	14.3 µM (inactive)	13.9 µM (inactive)	13.1 µM (inactive)	18.6 µM (inactive)	> 100 µM (inactive)	61.5 µM (inactive)	13.2 µM (inactive)		20.7 µM (inactive)	20.7 µM (inactive)	16.7 µM (inactive)	24 µM (inactive)	33.4 µM (inactive)	15.5 µM (inactive)	
N#CC1=C(N)OC(c2cccc([N+](=O)[O-])c2)C1(C#N)C#N (configuration not stated)	18.9 µM (inactive)		0.78 µM (active)	16.8 µM (inactive)	14.2 µM (inactive)	21.2 µM (inactive)	11.9 µM (inactive)	15.2 µM (inactive)	18 µM (inactive)	21.8 µM (inactive)	19.7 µM (inactive)	> 10 µM (inactive)	18.2 µM (inactive)	18.3 µM (inactive)	21.3 µM (inactive)	15.1 µM (inactive)	17.6 µM (inactive)			14.9 µM (inactive)
C=C1C(=O)OC2/C=C(\C)CC(O)/C=C(/CO)CC(OC(=O)/C(C)=C/C)C12 (configuration not stated)	95.3 µM (inactive)	13.9 µM (inactive)	133 µM (inactive)	30.9 µM (inactive)	13 µM (inactive)	27.7 µM (inactive)	13.3 µM (inactive)	29.6 µM (inactive)	14.8 µM (inactive)	114 µM (inactive)	26.8 µM (inactive)	17.6 µM (inactive)		18.9 µM (inactive)	51.9 µM (inactive)	12.3 µM (inactive)	37.8 µM (inactive)	36 µM (inactive)	14.8 µM (inactive)	
Cc1noc(/N=C2\C=C(O)C(=O)c3ccccc32)c1C	2.18 µM (inactive)		3.5 µM (inactive)	18.8 µM (inactive)	0.274 µM (active)	3.47 µM (inactive)	0.516 µM (active)	1.69 µM (inactive)	0.676 µM (active)	3.91 µM (inactive)	29.2 µM (inactive)		13 µM (inactive)	2.55 µM (inactive)	0.251 µM (active)	2.14 µM (inactive)	10 µM (inactive)	2.36 µM (inactive)	58.1 µM (inactive)	21.2 µM (inactive)
O=C1OC(=O)C2C3C=CC(C12)C1C2C=CC2C31 (configuration not stated)	> 100 µM (inactive)	> 100 µM (inactive)		> 100 µM (inactive)	> 100 µM (inactive)	> 100 µM (inactive)	> 100 µM (inactive)	> 100 µM (inactive)		> 100 µM (inactive)	> 100 µM (inactive)	> 100 µM (inactive)	> 100 µM (inactive)	> 100 µM (inactive)	> 100 µM (inactive)	> 100 µM (inactive)	> 100 µM (inactive)	> 100 µM (inactive)	> 100 µM (inactive)	> 100 µM (inactive)
Cc1cccc(-n2c(=S)[nH]c3c(sc(=O)n3-c3ccccc3C)c2=O)c1	> 100 µM (inactive)	> 100 µM (inactive)	> 100 µM (inactive)	> 100 µM (inactive)	> 100 µM (inactive)	> 100 µM (inactive)	> 100 µM (inactive)	> 100 µM (inactive)	> 100 µM (inactive)	> 100 µM (inactive)	> 100 µM (inactive)	> 100 µM (inactive)	> 100 µM (inactive)	> 100 µM (inactive)	> 100 µM (inactive)		> 100 µM (inactive)	> 100 µM (inactive)	> 100 µM (inactive)	> 100 µM (inactive)
O=C(N/N=C(\c1nc2ccc(Cl)cc2nc1O)C(O)c1ccccc1Cl)c1ccncc1 (configuration not stated)		> 100 µM (inactive)	> 100 µM (inactive)	> 100 µM (inactive)	> 100 µM (inactive)	> 100 µM (inactive)	> 100 µM (inactive)	> 100 µM (inactive)	> 100 µM (inactive)	> 100 µM (inactive)	> 100 µM (inactive)	> 100 µM (inactive)	> 100 µM (inactive)	> 100 µM (inactive)	> 100 µM (inactive)	> 100 µM (inactive)	> 100 µM (inactive)	> 100 µM (inactive)	> 100 µM (inactive)	> 100 µM (inactive)
Cc1nc(-c2cccnc2)sc1C(=O)/C=C/c1cccc([N+](=O)[O-])c1	> 100 µM (inactive)	> 100 µM (inactive)	> 100 µM (inactive)	> 100 µM (inactive)	> 100 µM (inactive)	> 100 µM (inactive)	> 100 µM (inactive)		> 100 µM (inactive)		> 100 µM (inactive)	> 100 µM (inactive)		> 100 µM (inactive)	> 100 µM (inactive)	> 100 µM (inactive)	> 100 µM (inactive)	> 100 µM (inactive)	> 100 µM (inactive)	> 100 µM (inactive)
O=C(Nc1ccc(C(F)(F)F)cc1[N+](=O)[O-])C(=O)Nn1c(S)nc2ccccc2c1=O	> 100 µM (inactive)	> 100 µM (inactive)	> 100 µM (inactive)	> 100 µM (inactive)	> 100 µM (inactive)	> 100 µM (inactive)	> 100 µM (inactive)	> 100 µM (inactive)	> 100 µM (inactive)	> 100 µM (inactive)	> 100 µM (inactive)	> 100 µM (inactive)	> 100 µM (inactive)	> 100 µM (inactive)	> 100 µM (inactive)	> 100 µM (inactive)	> 100 µM (inactive)	> 100 µM (inactive)	> 100 µM (inactive)	
CC[C@@]1(O)C[C@H](OC2CC(N(C)C)C(O)C(C)O2)c2c(O)c3c(c(O)c2[C@H]1OC1CC(N(C)C)C(O)C(C)O1)C(=O)c1cccc(O)c1C3=O (some centres not stated)	0.0404 µM (active)	0.0687 µM (active)	0.0195 µM (active)	0.071 µM (active)	0.0144 µM (active)	0.057 µM (active)	0.0869 µM (active)	0.0247 µM (active)	0.0323 µM (active)	0.04 µM (active)	0.012 µM (active)	0.0378 µM (active)		0.0424 µM (active)	0.0227 µM (active)	0.0208 µM (active)	0.0706 µM (active)	0.018 µM (active)	0.0373 µM (active)	0.0196 µM (active)
N#CC(c1nc2ccccc2nc1Cl)S(=O)(=O)c1ccccc1 (configuration not stated)	> 100 µM (inactive)	30.1 µM (inactive)	> 100 µM (inactive)	27.4 µM (inactive)	30.7 µM (inactive)	37.5 µM (inactive)	> 100 µM (inactive)	> 100 µM (inactive)	> 100 µM (inactive)	> 100 µM (inactive)	> 100 µM (inactive)	69.3 µM (inactive)	> 100 µM (inactive)	56.9 µM (inactive)	97.1 µM (inactive)	43.5 µM (inactive)		> 100 µM (inactive)	> 100 µM (inactive)	> 100 µM (inactive)
C1=Cc2cccc3occ(c23)C=C1	> 100 µM (inactive)	20.5 µM (inactive)		91.8 µM (inactive)	33 µM (inactive)	84.5 µM (inactive)	20.4 µM (inactive)	46.3 µM (inactive)	> 100 µM (inactive)	95.1 µM (inactive)	> 100 µM (inactive)	39.1 µM (inactive)	58.1 µM (inactive)	> 100 µM (inactive)	> 100 µM (inactive)	17.9 µM (inactive)	54.2 µM (inactive)	41.3 µM (inactive)	47.2 µM (inactive)	58.3 µM (inactive)
